Test system: MV-4-11 cells
Assay: Gene expression microarray analysis (Affymetrix PrimeView) and GSEA
Assay type: cell-based, human
Settings: ProbeSet 11733176_x_at; LIST B

## Nc1ccc(-c2cccs2)cc1NC(=O)c1ccc2c(c1)cc(C1CC1)n2CCN1CCOCC1 [ACY-1035]
  RFU, ZNF507: 24.05 RFU

— publication PMC5218480 (PLoS ONE, 2017)
